The source of these data is US12435060B2, “Acylamino bridged heterocyclic compound, and composition and application thereof” (BEIJING SCITECH-MQ PHARMACEUTICALS LIMITED, priority 2019, dated 2025).

Structures are written as SMILES.

For the experiment, the system named is HT29 cells. Briefly: Inhibition of cell necrosis (CCK8 method), induced programmed necrosis of HT29 cells. The experiment is classed as cell-based. The following applies: Homo sapiens, HT-29; rescue from necrosis induced by TNF-α 20 ng/mL, AT-406 1 μM, Z-VAD-FMK 20 μM; 16-20 hours; CCK-8, OD 450 nm. Put shortly: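 HT29 cells in McCOY's 5A with 10% FBS were pre-treated for 30 min with compound (9 fourfold steps, 25000 to 0.38 nM final, 0.25% DMSO). Necrosis was then induced with TNF-α 20 ng/mL, AT-406 1 μM and Z-VAD-FMK 20 μM for 16-20 h. Viability was read by CCK-8 OD450, normalized between uninduced and induced wells, and IC50 was curve-fitted.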
Consider `CC(C)(O)CCCOc1ccc(Cl)c(-c2ccnc(NC(=O)c3nnc(Cc4cc(C(F)(F)F)ccc4F)[nH]3)c2)c1` [Example 347, N-(4-(2-chloro-5-((4-hydroxy-4-methylpentyl)oxy)phenyl)pyridin-2-yl)-5-(2-fluoro-5-(trifluoromethyl)benzyl)-4H-1,2,4-triazole-3-carboxamide], for which the IC50 lay in the range of 100 to 1000 nM.
The result for `CC(C)(O)CCCOc1ccc(Cl)c(-c2ccnc(NC(=O)c3nnc(Cc4cc(F)cc(C(F)(F)F)c4)[nH]3)c2)c1` [Example 348, N-(4-(2-chloro-5-((4-hydroxy-4-methylpentyl)oxy)phenyl)pyridin-2-yl)-5-(3-fluoro-5-(trifluoromethyl)benzyl)-4H-1,2,4-triazole-3-carboxamide] reads 1000 to 10000 nM.
The result for `CC(C)(O)CCCOc1ccc(Cl)c(-c2ccnc(NC(=O)c3nnc(Cc4ccc(F)c(C(F)(F)F)c4)[nH]3)c2)c1` [Example 349, N-(4-(2-chloro-5-((4-hydroxy-4-methylpentyl)oxy)phenyl)pyridin-2-yl)-5-(4-fluoro-3-(trifluoromethyl)benzyl)-4H-1,2,4-triazole-3-carboxamide] reads over 10000 nM; that for `CCc1ccc(F)c(Cc2nnc(C(=O)Nc3cc(-c4cc(OCCCC(C)(C)O)ccc4Cl)ccn3)[nH]2)c1` [Example 350, N-(4-(2-chloro-5-((4-hydroxy-4-methylpentyl)oxy)phenyl)pyridin-2-yl)-5-(5-ethyl-2-fluorobenzyl)-4H-1,2,4-triazole-3-carboxamide], 100 to 1000 nM.
The result for `CC(C)(O)CCCOc1ccc(Cl)c(-c2ccnc(NC(=O)c3nnc(Cc4ccc(F)c(F)c4F)[nH]3)c2)c1` [Example 351, N-(4-(2-chloro-5-((4-hydroxy-4-methylpentyl)oxy)phenyl)pyridin-2-yl)-5-(2,3,4-trifluorobenzyl)-4H-1,2,4-triazole-3-carboxamide] reads 100 to 1000 nM; that for `CC(C)(O)CCCOc1ccc(Cl)c(-c2ccnc(NC(=O)c3nnc(Cc4cc(F)cc(F)c4F)[nH]3)c2)c1` [Example 352, N-(4-(2-chloro-5-((4-hydroxy-4-methylpentyl)oxy)phenyl)pyridin-2-yl)-5-(2,3,5-trifluorobenzyl)-4H-1,2,4-triazole-3-carboxamide], 100 to 1000 nM.
`CC(C)(O)CCCOc1ccc(Cl)c(-c2ccnc(NC(=O)c3nnc(Cc4c(F)ccc(F)c4F)[nH]3)c2)c1` [Example 353, N-(4-(2-chloro-5-((4-hydroxy-4-methylpentyl)oxy)phenyl)pyridin-2-yl)-5-(2,3,6-trifluorobenzyl)-4H-1,2,4-triazole-3-carboxamide] had an IC50 of at most 100 nM.
Molecule `CC(C)(O)CCCOc1ccc(Cl)c(-c2ccnc(NC(=O)c3nnc(Cc4cc(F)c(F)c(F)c4)[nH]3)c2)c1` [Example 354, N-(4-(2-chloro-5-((4-hydroxy-4-methylpentyl)oxy)phenyl)pyridin-2-yl)-5-(3,4,5-trifluorobenzyl)-4H-1,2,4-triazole-3-carboxamide] displayed a half-inhibitory concentration (IC50) of 100 to 1000 nM.
The same measure for `CC(C)(O)CCCOc1ccc(Cl)c(-c2ccnc(NC(=O)c3nnc(Cc4cc(F)c(F)cc4F)[nH]3)c2)c1` [Example 355, N-(4-(2-chloro-5-((4-hydroxy-4-methylpentyl)oxy)phenyl)pyridin-2-yl)-5-(2,4,5-trifluorobenzyl)-4H-1,2,4-triazole-3-carboxamide]: 100 to 1000 nM.
The same measure for `CC(C)(O)CCCOc1ccc(Cl)c(-c2ccnc(NC(=O)c3nnc(CC4CCCC4)[nH]3)c2)c1` [Example 356, N-(4-(2-chloro-5-((4-hydroxy-4-methylpentyl)oxy)phenyl)pyridin-2-yl)-5-(cyclopentylmethyl)-4H-1,2,4-triazole-3-carboxamide]: at most 100 nM.
In the case of `CC(C)(O)CCCOc1ccc(Cl)c(-c2ccnc(NC(=O)c3nnc(CC4CCCCC4)[nH]3)c2)c1` [Example 357, N-(4-(2-chloro-5-((4-hydroxy-4-methylpentyl)oxy)phenyl)pyridin-2-yl)-5-(cyclohexylmethyl)-4H-1,2,4-triazole-3-carboxamide], the IC50 is at most 100 nM.
The same measure for `CC(C)(O)CCCOc1ccc(Cl)c(-c2ccnc(NC(=O)c3nnc(CN4CCCC4)[nH]3)c2)c1` [Example 358, N-(4-(2-chloro-5-((4-hydroxy-4-methylpentyl)oxy)phenyl)pyridin-2-yl)-5-(pyrrolidin-1-ylmethyl)-4H-1,2,4-triazole-3-carboxamide]: over 10000 nM; for `CCC(O)(CC)CCCOc1ccc(Cl)c(-c2ccnc(NC(=O)c3nnc(Cc4ccccc4)[nH]3)c2)c1` [Example 359, 5-benzyl-N-(4-(2-chloro-5-((4-ethyl-4-hydroxyhexyl)oxy)phenyl)pyridin-2-yl)-4H-1,2,4-triazole-3-carboxamide]: at most 100 nM.
The result for `CCC(O)(CC)CCCOc1ccc(Cl)c(-c2ccnc(NC(=O)c3nnc(Cc4ccccc4F)[nH]3)c2)c1` [Example 360, N-(4-(2-chloro-5-((4-ethyl-4-hydroxyhexyl)oxy)phenyl)pyridin-2-yl)-5-(2-fluorobenzyl)-4H-1,2,4-triazole-3-carboxamide] reads at most 100 nM.
The result for `CCC(O)(CC)CCCOc1ccc(Cl)c(-c2ccnc(NC(=O)c3nnc(CC4CCCC4)[nH]3)c2)c1` [Example 361, N-(4-(2-chloro-5-((4-ethyl-4-hydroxyhexyl)oxy)phenyl)pyridin-2-yl)-5-(cyclopentylmethyl)-4H-1,2,4-triazole-3-carboxamide] reads at most 100 nM; that for `CCC(O)(CC)CCCOc1ccc(Cl)c(-c2ccnc(NC(=O)c3nnc(CC4CCCCC4)[nH]3)c2)c1` [Example 362, N-(4-(2-chloro-5-((4-ethyl-4-hydroxyhexyl)oxy)phenyl)pyridin-2-yl)-5-(cyclohexylmethyl)-4H-1,2,4-triazole-3-carboxamide], at most 100 nM.
Molecule `CC(C)(O)COc1ccc(Cl)c(-c2ccnc(NC(=O)c3nnc(Cc4ccccc4)[nH]3)c2)c1` [Example 363, 5-benzyl-N-(4-(2-chloro-5-(2-hydroxyl-2-methylpropoxy)phenyl)pyridin-2-yl)-4H-1,2,4-triazole-3-carboxamide] yielded an IC50 of at most 100 nM.
The same measure for `CC(C)(O)COc1ccc(Cl)c(-c2ccnc(NC(=O)c3nnc(Cc4ccccc4F)[nH]3)c2)c1` [Example 364, 5-(2-fluorobenzyl)-N-(4-(2-chloro-5-(2-hydroxyl-2-methylpropoxy)phenyl)pyridin-2-yl)-4H-1,2,4-triazole-3-carboxamide]: at most 100 nM; for `CC(C)(O)COc1ccc(Cl)c(-c2ccnc(NC(=O)c3nnc(CC4CCCC4)[nH]3)c2)c1` [Example 365, N-(4-(2-chloro-5-(2-hydroxyl-2-methylpropoxy)phenyl)pyridin-2-yl)-5-(cyclopentylmethyl)-4H-1,2,4-triazole-3-carboxamide]: at most 100 nM; for `CC(C)(O)COc1ccc(Cl)c(-c2ccnc(NC(=O)c3nnc(CC4CCCCC4)[nH]3)c2)c1` [Example 366, N-(4-(2-chloro-5-(2-hydroxyl-2-methylpropoxy)phenyl)pyridin-2-yl)-5-(cyclohexylmethyl)-4H-1,2,4-triazole-3-carboxamide]: at most 100 nM.
The result for `CC(C)(O)CCCCOc1ccc(Cl)c(-c2ccnc(NC(=O)c3nnc(Cc4ccccc4)[nH]3)c2)c1` [Example 367, 5-benzyl-N-(4-(2-chloro-5-((5-hydroxyl-5-methylhexyl)oxy)phenyl)pyridin-2-yl)-4H-1,2,4-triazole-3-carboxamide] reads at most 100 nM.
